The values that follow come from paper PMC5479826, “Determination of Crucial Immunogenic Epitopes in Major Peanut Allergy Protein, Ara h2, via Novel Nanoallergen Platform” (Scientific Reports, 2017).

This assay deals with patient sera IgEs. Briefly: ELISA binding assay with patient sera. Also noted: species or system human. On the procedure:
A high binding 96 well plate was incubated with anti-Human IgE in Carbonate-Bicarbonate buffer (Sigma) at a concentration of 3 nM for 16 hours at 4 °C. Plate was washed with washing buffer (PBS with 0.5% tween 20) and then blocked with blocking buffer (5% BSA in PBS with 0.1% tween 20) for 1 hr at room temperature. Plate was washed with automatic plate washer (AquaMax 2000), then varying concentrations of either Ara h2-Biotin (Indoors Biotechnologies) or FITC-peptide 2 conjugate in blocking buffer for 1 hour. Plate was washed again and then either streptavidin-HRP (1:5 000 dilution) or anti-FITC HRP IgG (1:5000 dilution) was added in blocking buffer. After another washing step, Amplex Red substrate was added (Invitrogen) and plate fluorescence was read at 5 minute intervals according to manufacturer’s instructions.
For orientation: ELISA stands for enzyme-linked immunosorbent assay.

As usually defined, the EC50 is the midpoint of the concentration-response curve. Lower therefore signals greater potency. As to ERDPYSP^OHSQDPYSP^OHS [Epitope 2], the EC50 (Fig. S-2, patient serum 1 on anti-IgE coated plate, Ara h 2-Biotin or FITC-tagged epitope 2 peptide) came out at 465 ± 200 nM. Moreover, the “Binding to patient sera IgEs in ELISA (detectability)” value (serum 1, result in words) is reported as “detectable binding”.
